Results published in patent publication US8273752B2, “Substituted imidazopyrimidines and triazolopyrimidines” (Bayer Intellectual Property GmbH, priority 2007, dated 2012).
pIC50: −log10 of the molar value. Structures can show the parent of a compound that is named as a salt.

Biological target: T1, GSK3β (Homo sapiens, UniProt P49841)
T1 construct: purchased Upstate xy
Test: GSK3β biochemical in vitro assay (fluorescence, NADH-coupled)
Conditions: 5 nM GSK3β, 40 μM substrate GSM, 50 μM ATP, 30° C., 2 hours
Method: The inhibitory activity of active substances is determined in a biochemical assay. The ingredients required for this purpose are mixed in a black 384-well microtitre plate with transparent base (from Greiner, catalogue number 781092). The requirements in this connection for each well of the 384-well microtitre plate are 5 nM GSK3β (from Upstate, catalogue number xy), 40 μM GSK3B substrate GSM (sequence H-RRRPASVPPSPSLSRHS-(pS)-HQRR, from Upstate, catalogue number 2-533), 30 μM nicotinamide adenine dinucleotide NADH (Roche Diagnostics, catalogue number 10107735), 50 μM adenosine triphosphate ATP (from Sigma, catalogue number A7966), and 2 mM phosphoenolpyruvate (from Roche, catalogue number 128112). The required reaction buffer in which the biochemical reaction takes place consists of 50 mM Trizma hydrochloride tris-HCl pH: 7.5 (from Sigma, catalogue number T3253), 5 mM magnesium chloride MgCl2 (from Sigma, catalogue number M8266), 0.2 mM DL-dithiothreitol DTT (from Sigma, catalogue number D9779), 2 mM ethylenediaminethertetraacid EDTA (from Sigma, catalogue number E6758), 0.01% Triton X-100 (from Sigma, catalogue number T8787) and 0.05% bovine serum albumin BSA (from Sigma, catalogue number B4287).
Active substances are dissolved in dimethyl sulphoxide DMSO (from Sigma, catalogue number D8418) in a concentration of 10 mM. Active substances are added in serial concentrations of 10 μM, 1 μM, 0.1 μM, 0.01 μM, 0.001 μM, 0.0001 μM, 0.00001 μM, 0.000001 μM to the mixtures of the biochemical reaction. As control, dimethyl sulphoxide is added instead of substance in a final concentration of 0.1%.
The reaction is incubated at 30° C. for 2 hours and then the resulting fluorescence is measured in a Tecan Safire-XFLUOR4 instrument, version V4.50 (serial number 12901300283) with the specifications: measurement mode—fluorescence measured from below, extinction wavelength 340 nm, emission wavelength 465 nm, slit width extinction 5 nm, slit width emission 5 nm, gain mode 120, delay 0 μs, number of light flashes per measurement 3, and an integration time of 40 μs.
The activity of the active substances is calculated in relation to these 0% and 100%.

T1 sequence (P49841 whole entry, species assumed): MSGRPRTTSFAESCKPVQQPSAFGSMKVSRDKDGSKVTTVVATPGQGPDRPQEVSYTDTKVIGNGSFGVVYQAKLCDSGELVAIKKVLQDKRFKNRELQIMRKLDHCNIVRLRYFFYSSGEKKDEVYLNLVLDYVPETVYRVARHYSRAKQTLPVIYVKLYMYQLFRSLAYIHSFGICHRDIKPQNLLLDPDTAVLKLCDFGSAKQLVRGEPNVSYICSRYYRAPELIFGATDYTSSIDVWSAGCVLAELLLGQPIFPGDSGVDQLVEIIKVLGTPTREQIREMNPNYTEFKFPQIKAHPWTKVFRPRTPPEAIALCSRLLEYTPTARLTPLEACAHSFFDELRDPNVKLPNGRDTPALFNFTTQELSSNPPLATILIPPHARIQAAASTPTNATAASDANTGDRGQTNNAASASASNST

SMILES | pIC50
N#Cc1ccc(NCCNc2nc(-c3ccc(C(F)(F)F)cc3)cc3nccn23)nc1 [Example 7, 6-{[2-({7-[4-(Trifluoromethyl)phenyl]imidazo[1,2-c]pyrimidin-5-yl}amino)ethyl]amino}-nicotinonitrile] | 6.74
CC(C)(C)c1ccc(-c2cc3nccn3c(NCCNc3ccc(C#N)cn3)n2)cc1 [Example 8] | 6.75
Nc1nc(NCCNc2nc(-c3ccc(OC(F)(F)F)cc3)cc3nccn23)ccc1[N+](=O)[O-] [Example 32] | 6.83
Cc1cc(C)cc(-c2cc3nccn3c(NCCNc3ccc([N+](=O)[O-])c(N)n3)n2)c1 [Example 36] | 7.82
Cc1cccc(-c2cc3nccn3c(NCCNc3ccc([N+](=O)[O-])c(N)n3)n2)c1C [Example 38] | 7.64
Cc1cc(F)ccc1-c1cc2nccn2c(NCCNc2ccc([N+](=O)[O-])c(N)n2)n1 [Example 39] | 7.64
Cc1cccc(-c2cc3nccn3c(NCCNc3ccc([N+](=O)[O-])c(N)n3)n2)c1 [Example 40] | 7.62
Nc1nc(NCCNc2nc(-c3ccc(F)c(Cl)c3)cc3nccn23)ccc1[N+](=O)[O-] [Example 53] | 7.09
CCOc1ccc(-c2cc3nccn3c(NCCNc3ccc([N+](=O)[O-])c(N)n3)n2)cc1 [Example 56] | 7.04
Nc1nc(NCCNc2nc(-c3ccccc3)cc3nccn23)ccc1[N+](=O)[O-] [Example 57] | 7.03
CC(C)Cn1cc(-c2cc3nccn3c(NCCNc3ccc([N+](=O)[O-])c(N)n3)n2)cn1 [Example 63] | 6.76
CCCCc1ccc(-c2cc3nccn3c(NCCNc3ccc([N+](=O)[O-])c(N)n3)n2)cc1 [Example 65] | 6.73
Nc1nc(NCCNc2nc(-c3ccc(C(F)(F)F)cc3)cc3nccn23)ccc1[N+](=O)[O-] [Example 66] | 6.71
Nc1nc(NCCNc2nc(-c3ccc(Cl)cc3Cl)cc3nc(CN4CCOCC4)cn23)ccc1[N+](=O)[O-] [Example 81, N^6-(2-{[7-(2,4-Dichlorophenyl)-2-(morpholin-4-ylmethyl)imidazo[1,2-c]pyrimidin-5-yl]amino}ethyl)-3-nitropyridine-2,6-diamine trifluoroacetate] | 8.10
N#Cc1ccc(NCCNc2nc(-c3ccc(C(F)(F)F)cc3)cc3nc(C(=O)NCCO)cn23)nc1 [Example 117] | 7.03
N#Cc1ccc(NCCNc2nc(-c3ccc(C(F)(F)F)cc3)cc3nc(C(=O)NC(CO)CO)cn23)nc1 [Example 120] | 6.91
CC(=O)c1sc(NC2CCCN(c3nc(-c4ccc(Cl)cc4Cl)cc4nccn34)C2)nc1N (stereo not shown) [Example 128, 1-[4-amino-2-({1-[7-(2,4-dichlorophenyl)imidazo[1,2-c]pyrimidin-5-yl]piperidin-3-yl}amino)-1,3-thiazol-5-yl]ethanone trifluoroacetate] | 8.52
Nc1nc(NCCNc2nc(-c3ccc(Cl)cc3Cl)cc3nccn23)sc1C(=O)C(F)(F)F [Example 129] | 8.15
Nc1nc(NCCNc2nc(-c3ccc(Cl)cc3Cl)cc3nccn23)sc1C(=O)C1CC1 [Example 131] | 8.22
COC(=O)c1sc(NCCNc2nc(-c3ccc(Cl)cc3Cl)cc3nccn23)nc1N [Example 134] | 7.66
CC(=O)c1sc(NCCNc2nc(-c3ccc(Cl)cc3Cl)cc3nccn23)nc1N [Example 137] | 8.30
N#Cc1ccc(NCCNc2nc(-c3ccc(C(F)(F)F)cc3)cc3nc(CN4CCOCC4)nn23)nc1N [Example 180] | 7.30
N#Cc1sc(NCCNc2nc(-c3ccc(Cl)cc3Cl)cc3nc(CN4CCOCC4)nn23)nc1N [Example 185] | 7.41
N#Cc1sc(NCCNc2nc(-c3ccc(C(F)(F)F)cc3)cc3ncnn23)nc1N [Example 186] | 7.57

Results, then the molecule that gave them:

pIC50 | SMILES
7.66 | N#Cc1ccc(NC2CCCN(c3nc(-c4ccc(Cl)cc4Cl)cc4nccn34)C2)nc1 (single isomer, unassigned) [Ent. B 123, 6-({1-[7-(2,4-dichlorophenyl)imidazo[1,2-c]pyrimidin-5-yl]piperidin-3-yl}amino)pyridine-3-carbonitrile trifluoroacetate]
7.47 | N#Cc1ccc(NCCNc2nc(-c3ccc(Cl)cc3Cl)cc3nccn23)nc1 [Example 1, 6-[(2-{[7-(2,4-Dichlorophenyl)imidazo[1,2-c]pyrimidin-5-yl]amino}ethyl)amino]nicotinonitrile]
8.30 | Nc1nc(NCCNc2nc(-c3ccc(Cl)cc3Cl)cc3nccn23)ccc1[N+](=O)[O-] [Example 4, N^6-(2-{[7-(2,4-Dichlorophenyl)imidazo[1,2-c]pyrimidin-5-yl]amino}ethyl)-3-nitropyridine-2,6-diamine]
7.82 | N#Cc1sc(NCCNc2nc(-c3ccc(Cl)cc3Cl)cc3nccn23)nc1N [Example 5, 4-Amino-2-[(2-{[7-(2,4-dichlorophenyl)imidazo[1,2-c]pyrimidin-5-yl]amino}ethyl)amino]-1,3-thiazole-5-carbonitrile]
7.36 | O=[N+]([O-])c1ccc(NCCNc2nc(-c3ccc(Cl)cc3Cl)cc3nccn23)nc1 [Example 6, N-[7-(2,4-Dichlorophenyl)imidazo[1,2-c]pyrimidin-5-yl]-N′-(5-nitropyridin-2-yl)ethane-1,2-diamine]
7.77 | Cc1cn2c(NCCNc3ccc([N+](=O)[O-])c(N)n3)nc(-c3ccc(Cl)cc3Cl)cc2n1 [Example 77, N^6-(2-{[7-(2,4-Dichlorophenyl)-2-methylimidazo[1,2-c]pyrimidin-5-yl]amino}ethyl)-3-nitropyridine-2,6-diamine]
7.14 | N#Cc1ccc(NCCNc2nc(-c3ccc(C(F)(F)F)cc3)cc3ncnn23)nc1 [Example 93, 6-{[2-({7-[4-(Trifluoromethyl)phenyl][1,2,4]triazolo[1,5-c]pyrimidin-5-yl}amino)ethyl]amino}-nicotinonitrile]
7.05 | CN1CCN(C(=O)c2cn3c(NCCNc4ccc(C#N)cn4)nc(-c4ccc(Cl)cc4Cl)cc3n2)CC1 [Example 111]
7.27 | CN(C)CCNC(=O)c1cn2c(NCCNc3ccc(C#N)cn3)nc(-c3ccc(Cl)cc3Cl)cc2n1 [Example 112]
7.39 | CN1CCN(CCNC(=O)c2cn3c(NCCNc4ccc(C#N)cn4)nc(-c4ccc(Cl)cc4Cl)cc3n2)CC1 [Example 113]
8.30 | N#Cc1ccc(NCCNc2nc(-c3ccc(Cl)cc3Cl)cc3nc(C(=O)NCC(=O)O)cn23)nc1 [Example 115]
7.21 | N#Cc1ccc(NCCNc2nc(-c3ccc(Cl)cc3Cl)cc3nc(CN4CCOCC4)cn23)nc1 [Example 145, 6-[(2-{[7-(2,4-Dichlorophenyl)-2-(morpholin-4-ylmethyl)imidazo[1,2-c]pyrimidin-5-yl]amino}-ethyl)amino]pyridine-3-carbonitrile trifluoroacetate]
7.62 | CN(C)Cc1cn2c(NCCNc3ccc([N+](=O)[O-])c(N)n3)nc(-c3ccc(Cl)cc3Cl)cc2n1 [Example 147, N^6-[2-({7-(2,4-Dichlorophenyl)-2-[(dimethylamino)methyl]imidazo[1,2-c]pyrimidin-5-yl}amino)-ethyl]-3-nitropyridine-2,6-diamine trifluoroacetate]
7.92 | N#Cc1ccc(NCCNc2nc(-c3ccc(Cl)cc3Cl)cc3nccn23)nc1N [Example 148, 2-Amino-6-[(2-{[7-(2,4-dichlorophenyl)imidazo[1,2-c]pyrimidin-5-yl]amino}ethyl)amino]-pyridine-3-carbonitrile]
8.00 | Nc1nc(NCCNc2nc(-c3ccc(Cl)cc3Cl)cc3nccn23)ccc1C(=O)C(F)(F)F [Example 149, 1-{2-Amino-6-[(2-{[7-(2,4-dichlorophenyl)imidazo[1,2-c]pyrimidin-5-yl]amino}ethyl)amino]-pyridin-3-yl}-2,2,2-trifluoroethanone hydrochloride]
7.96 | CC(=O)c1ccc(NCCNc2nc(-c3ccc(Cl)cc3Cl)cc3nccn23)nc1N [Example 150, 1-{2-Amino-6-[(2-{[7-(2,4-dichlorophenyl)imidazo[1,2-c]pyrimidin-5-yl]amino}ethyl)amino]-pyridin-3-yl}ethanone hydrochloride]
7.85 | N#Cc1ccc(NCCNc2nc(-c3ccc(Cl)cc3Cl)cc3ncc(Br)n23)nc1 [Example 153, 6-[(2-{[3-Bromo-7-(2,4-dichlorophenyl)imidazo[1,2-c]pyrimidin-5-yl]amino}ethyl)amino]-pyridine-3-carbonitrile]
7.72 | N#Cc1ccc(NCCNc2nc(-c3ccc(Cl)cc3Cl)cc3ncc(Cl)n23)nc1 [Example 154, 6-[(2-{[3-Chloro-7-(2,4-dichlorophenyl)imidazo[1,2-c]pyrimidin-5-yl]amino}ethyl)amino]-pyridine-3-carbonitrile]
7.21 | COC(=O)c1ccc(NCCNc2nc(-c3ccc(Cl)cc3Cl)cc3ncnn23)nc1N [Example 167]
